Earlier results on one compound are cited in patent publication EP2322149A1, “Methods and compositions for the treatment of ischemia” (Universidad del Pais Vasco, priority 2009, dated 2011).

In general, IC50 refers to the concentration that gives 50% inhibition.

One series deals with T1, P2X2 (Homo sapiens, UniProt Q9UBL9).
T1 sequence (Q9UBL9 1-471): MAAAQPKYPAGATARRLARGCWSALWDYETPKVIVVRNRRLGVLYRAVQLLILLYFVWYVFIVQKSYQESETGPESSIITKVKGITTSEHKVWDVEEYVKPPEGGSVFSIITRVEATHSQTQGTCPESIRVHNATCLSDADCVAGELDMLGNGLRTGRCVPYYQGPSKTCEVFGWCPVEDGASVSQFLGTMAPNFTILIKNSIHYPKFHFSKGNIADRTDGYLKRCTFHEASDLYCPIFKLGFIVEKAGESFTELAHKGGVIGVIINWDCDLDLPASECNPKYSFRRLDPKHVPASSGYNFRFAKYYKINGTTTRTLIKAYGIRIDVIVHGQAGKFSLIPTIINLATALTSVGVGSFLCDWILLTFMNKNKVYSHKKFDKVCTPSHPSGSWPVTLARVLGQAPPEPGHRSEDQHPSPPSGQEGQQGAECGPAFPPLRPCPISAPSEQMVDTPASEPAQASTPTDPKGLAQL
Conditions: read-out: IC50 P2X2; cited from earlier work.

The target in another series is T2, P2X3 (Homo sapiens, UniProt P56373).
T2 sequence (P56373 1-397): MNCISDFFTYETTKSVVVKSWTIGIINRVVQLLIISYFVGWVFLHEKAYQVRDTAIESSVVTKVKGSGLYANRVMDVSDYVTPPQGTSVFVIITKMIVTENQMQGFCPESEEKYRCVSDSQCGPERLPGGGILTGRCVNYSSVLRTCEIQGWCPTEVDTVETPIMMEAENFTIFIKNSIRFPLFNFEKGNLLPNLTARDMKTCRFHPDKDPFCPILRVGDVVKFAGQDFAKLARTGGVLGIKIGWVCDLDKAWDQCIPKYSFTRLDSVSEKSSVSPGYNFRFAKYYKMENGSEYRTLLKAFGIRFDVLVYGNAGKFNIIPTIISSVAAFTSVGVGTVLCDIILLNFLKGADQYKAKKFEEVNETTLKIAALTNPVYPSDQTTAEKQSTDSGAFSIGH
Conditions: read-out: IC50 P2X3; cited from earlier work.

A further series deals with T3, P2X7 (Homo sapiens, UniProt Q99572).
T3 sequence (Q99572 1-595): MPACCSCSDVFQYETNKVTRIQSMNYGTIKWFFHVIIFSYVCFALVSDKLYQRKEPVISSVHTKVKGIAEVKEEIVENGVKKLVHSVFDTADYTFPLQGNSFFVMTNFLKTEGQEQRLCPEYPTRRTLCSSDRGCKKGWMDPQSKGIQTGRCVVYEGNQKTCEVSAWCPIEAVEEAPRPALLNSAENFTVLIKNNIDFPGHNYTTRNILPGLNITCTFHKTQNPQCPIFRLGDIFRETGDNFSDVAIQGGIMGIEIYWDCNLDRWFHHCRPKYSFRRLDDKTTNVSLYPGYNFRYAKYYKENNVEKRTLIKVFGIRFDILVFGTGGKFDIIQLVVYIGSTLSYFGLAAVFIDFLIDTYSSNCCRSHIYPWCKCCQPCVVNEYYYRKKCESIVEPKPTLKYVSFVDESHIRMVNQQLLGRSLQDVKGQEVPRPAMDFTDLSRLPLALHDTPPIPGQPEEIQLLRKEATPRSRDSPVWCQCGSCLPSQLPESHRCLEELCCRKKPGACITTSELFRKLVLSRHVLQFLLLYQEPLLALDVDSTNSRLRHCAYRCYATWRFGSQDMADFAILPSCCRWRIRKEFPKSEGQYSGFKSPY
To be noted: cited from earlier work.

In a further series the target is P2X6 (Homo sapiens, UniProt O15547). To be noted: read-out: IC50 P2X6; cited from earlier work.
Chain of P2X6 (O15547 whole entry, species assumed): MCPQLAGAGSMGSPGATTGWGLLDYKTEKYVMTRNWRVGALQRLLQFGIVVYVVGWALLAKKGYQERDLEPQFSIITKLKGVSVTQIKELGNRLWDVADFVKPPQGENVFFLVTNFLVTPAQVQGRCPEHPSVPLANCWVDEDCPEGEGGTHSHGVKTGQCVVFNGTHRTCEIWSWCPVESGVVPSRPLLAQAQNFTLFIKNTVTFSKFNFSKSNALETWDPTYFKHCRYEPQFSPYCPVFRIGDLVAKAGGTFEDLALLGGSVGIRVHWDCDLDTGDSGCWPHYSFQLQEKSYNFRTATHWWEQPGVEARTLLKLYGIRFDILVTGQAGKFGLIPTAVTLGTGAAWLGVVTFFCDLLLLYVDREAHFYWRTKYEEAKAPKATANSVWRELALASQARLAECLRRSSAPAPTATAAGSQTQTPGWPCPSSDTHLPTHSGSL
In the next series the target is P2X5 (Homo sapiens, UniProt Q93086). To be noted: cited from earlier work.
Chain of P2X5 (Q93086 whole entry, species assumed): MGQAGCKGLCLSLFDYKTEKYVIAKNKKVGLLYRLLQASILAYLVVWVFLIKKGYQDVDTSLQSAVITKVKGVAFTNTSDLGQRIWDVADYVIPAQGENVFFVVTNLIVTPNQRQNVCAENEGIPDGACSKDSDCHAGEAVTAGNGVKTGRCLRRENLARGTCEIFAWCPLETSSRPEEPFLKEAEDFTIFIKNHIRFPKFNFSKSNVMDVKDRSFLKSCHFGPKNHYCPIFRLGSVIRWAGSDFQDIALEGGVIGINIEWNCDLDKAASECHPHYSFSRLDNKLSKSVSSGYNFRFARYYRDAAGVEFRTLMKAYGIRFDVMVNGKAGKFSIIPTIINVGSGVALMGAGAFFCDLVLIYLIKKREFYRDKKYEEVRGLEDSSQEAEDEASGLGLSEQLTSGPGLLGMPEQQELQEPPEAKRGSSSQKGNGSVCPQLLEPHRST
A further series has as its target T4, P2X1 (Homo sapiens, UniProt P51575).
T4 sequence (P51575 1-399): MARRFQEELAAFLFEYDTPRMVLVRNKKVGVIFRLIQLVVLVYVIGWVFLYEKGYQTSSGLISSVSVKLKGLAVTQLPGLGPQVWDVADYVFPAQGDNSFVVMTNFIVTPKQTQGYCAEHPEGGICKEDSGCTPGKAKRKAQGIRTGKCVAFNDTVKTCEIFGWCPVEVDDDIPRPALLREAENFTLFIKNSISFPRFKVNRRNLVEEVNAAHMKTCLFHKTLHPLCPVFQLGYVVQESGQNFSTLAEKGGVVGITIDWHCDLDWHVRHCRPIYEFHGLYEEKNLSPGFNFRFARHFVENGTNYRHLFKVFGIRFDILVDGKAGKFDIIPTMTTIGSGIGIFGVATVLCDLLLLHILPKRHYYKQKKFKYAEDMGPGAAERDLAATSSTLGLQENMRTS
To be noted: read-out: IC50 P2X1; cited from earlier work.

Another series deals with T5, P2X4 (Homo sapiens, UniProt Q99571).
T5 sequence (Q99571 1-388): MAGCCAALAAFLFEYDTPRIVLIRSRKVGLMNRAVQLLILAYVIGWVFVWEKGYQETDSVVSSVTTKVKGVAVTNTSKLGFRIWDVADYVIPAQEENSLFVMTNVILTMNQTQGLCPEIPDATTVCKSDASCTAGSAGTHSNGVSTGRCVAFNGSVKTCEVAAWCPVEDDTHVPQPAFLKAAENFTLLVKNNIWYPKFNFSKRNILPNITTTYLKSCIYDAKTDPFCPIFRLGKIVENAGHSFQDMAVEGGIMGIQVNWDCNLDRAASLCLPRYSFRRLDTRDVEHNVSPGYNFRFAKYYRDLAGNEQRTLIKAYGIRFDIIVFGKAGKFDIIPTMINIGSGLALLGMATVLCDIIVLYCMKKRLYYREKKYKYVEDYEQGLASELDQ
To be noted: read-out: IC50 P2X4; cited from earlier work.

Consider `Cc1cc(-c2ccc(/N=N/c3ccc4c(S(=O)(=O)O)cc(S(=O)(=O)O)c(N)c4c3O)c(C)c2)ccc1/N=N/c1ccc2c(S(=O)(=O)O)cc(S(=O)(=O)O)c(N)c2c1O` [Evans Blue], for which the IC50 at P2X2 is 1 to 400 µM; at P2X3 it was 1400 µM; at P2X7, 1 to 400 µM; at P2X6, 1 to 400 µM; on P2X5 it was 1 to 400 µM; on P2X1 it was 1400 µM. Also, the half-maximal inhibitory concentration (IC50) on P2X4 is 1 to 400 µM.
